The values below come from patent US20210371413A1, “POLYCYCLIC AMIDES AS CYTOTOXIC AGENTS” (FEMTOGENIX LIMITED, priority 2018, published 2021).

Common to all, as to type: cell-based
For one assay, the system named is SW620. As to the kind of experiment: In vitro cell-killing, MTT assay, SW620. The conditions noted are these: Homo sapiens, SW-620, 72 h, read-out: In vitro cell-killing (IC50), Cytotoxicity (72 hours). As to the method:
(§1) Tumor cell lines were maintained in RPMI1640 medium supplemented with 10% heat-inactivated fetal bovine serum, 2 mM L-glutamine and 1 mM sodium pyruvate. 1800 cells per well were seeded in a volume of 180 μl in a 96-well flat bottom polystyrene plate. The cells were allowed to adhere overnight at 37° C. in a CO2 incubator. Ligands were initially formulated in DMSO, and stocks stored at −80° C. They were then further formulated at lox concentration in RPMI1640 medium. 20 ul of diluted samples were added into each treatment well. On each plate, blank wells with no cells, and untreated wells containing cells, were included. Plates were then cultured at 37° C. in a CO2 incubator for 72 hrs. Cytotoxicity was evaluated using a tetrazolium salt-based assay, the MTT assay. After 72 hours, the supernatant was removed from each well and 200 μl of a sterile filtered 500 μg/ml MTT solution in water added to each well. […] The plate was then read on a plate reader at 540 nm, and percentage cell survival calculated as follows: ((mean absorbance treated wells at concentration x−mean absorbance blank wells)+(mean absorbance untreated wells at concentration x−mean absorbance blank wells))×100. Data were plotted as concentration in nM vs. % cell survival in Microsoft Excel, and IC50 values (concentration where cell survival is reduced by a half) were determined from the graph.

The test system of the next assay is LIM1215. As to the kind of experiment: In vitro cell-killing, MTT assay, LIM1215. The conditions noted are these: LIM1215, 72 h, read-out: In vitro cell-killing (IC50), Cytotoxicity (72 hours). Here is the method:
as §1

For a further assay, the system named is REH (ALL). Put plainly: In vitro cytotoxicity, MTT assay, REH. The conditions noted are these: 72 h, read-out: Cytotoxicity. Here is the method:
(§2) The in vitro cytotoxicity of a selection of compounds were evaluated in a panel of cell lines using the standard MTT assay for a 72 hour incubation period (Table 2). Free payloads produced cytotoxicities in the nanomolar range.
(§3) Tumor cell lines were maintained in RPMI1640 medium supplemented with 10% heat-inactivated fetal bovine serum, 2 mM L-glutamine and 1 mM sodium pyruvate. 1800 cells per well were seeded in a volume of 180 μl in a 96-well flat bottom polystyrene plate. The cells were allowed to adhere overnight at 37° C. in a CO2 incubator. Ligands were initially formulated in DMSO, and stocks stored at −80° C. They were then further formulated at lox concentration in RPMI1640 medium. 20 ul of diluted samples were added into each treatment well. On each plate, blank wells with no cells, and untreated wells containing cells, were included. Plates were then cultured at 37° C. in a CO2 incubator for 72 hrs. Cytotoxicity was evaluated using a tetrazolium salt-based assay, the MTT assay. After 72 hours, the supernatant was removed from each well and 200 μl of a sterile filtered 500 μg/ml MTT solution in water added to each well. The plates were then incubated at 37° C. in a CO2 incubator for 4 hrs. The supernatant was then removed and the formazan crystals formed solubilized by adding 150 μl of DMSO to each well. The plate was then read on a plate reader at 540 nm, and percentage cell survival calculated as follows: ((mean absorbance treated wells at concentration x−mean absorbance blank wells)+(mean absorbance untreated wells at concentration x−mean absorbance blank wells))×100. Data were plotted as concentration in nM vs. % cell survival in Microsoft Excel, and IC50 values (concentration where cell survival is reduced by a half) were determined from the graph.
A general note: Formazan colour is commonly taken as a measure of viable cells.

Assay [1] concerns Klebsiella pneumoniae KP4631. As to the kind of experiment: MIC assay, Klebsiella pneumoniae KP4631. The conditions noted are these: Klebsiella pneumoniae, KP4631. As to the method: (§4) The antimicrobial activity of a selection of compounds were evaluated in a Gram-negative, Gram-positive and multi-resistant bacteria using the standard minimum inhibitory concentration (MIC) assay for an overnight (16-20 hour) incubation period. Commercially marketed antibiotics (Table 3) were used as positive controls during the study.
(§5) Mueller-Hinton broth (MH Broth) (Sigma-Aldrich; Millipore, cat. no. 70192) and Mueller-Hinton agar (MHA) (Sigma-Aldrich; Millipore, cat. no. 70191) were prepared as per manufacturer's instructions and sterilized by autoclaving. Approximately 20 mL of MHA was poured onto 15×100 mm petri dishes and allowed to set. Agar plates were then stored in plastic bags in an inverted position at 4° C.
(§6) Bacterial strains were provided in the form of a glycerol stock, stored at −80° C. For the purpose of preparation of bacterial suspension, appropriate strains were removed from −80° C. storage onto dry ice and not allowed to freeze-thaw.
(§7) Stock solutions of 16, 45 and 73 were provided in DMSO at 1.28 mg/mL concentration. From this stock solution, working solutions of the desired concentration were prepared by diluting with MHB.
(§8) MIC assay methodology was adapted from previously published work.
(§9) Bacterial isolate to be tested was streaked onto a nutrient-rich MH agar plate and incubated overnight at 37° C. in order to obtain single colonies.
(§10) After overnight incubation, single colonies with the same morphological appearance were chosen from the agar plate. These were touched using a sterile loop and transferred into a tube containing 10 mL of a MH broth. They were then mixed using vortex mixer and incubated at 35-37° C. in a shaker at 200 r.p.m. overnight.
(§11) Determination of OD600 and cfu/mL count OD600 (the optical density of a sample measured at a wavelength of 600 nm) of the overnight culture was measured. Because of the loss of linearity at OD600 values […], it was necessary to dilute the sample until the OD600 value was below 1.0. For all tested bacteria, a dilution of 1:10 was appropriate (100 μL in 900 μL broth).
(§12) The overnight culture was then diluted 1:100 using sterile tubes and MH broth (dilution: 10^−2). Serial dilution was then performed six times until dilution of 10^−8 was reached. 100 μL of dilutions 10^−7 and 10^−8 were plated onto MH agar plates in triplicate using a sterile cell spreader and incubated overnight at 37° C.
(§13) After overnight incubation, colonies on plates were counted and cfu per mL calculated. The following formula was applied: […]
(§14) After overnight incubation, the OD600 was measured and the overnight culture was diluted accordingly to obtain 1×10^8 cfu/mL. […]
(§15) The 96-well plates were read using a SpectraMax plate reader at an absorbance of 600 nm. […]

The test system of assay [2] is transcription factors in HeLa cells. Put plainly: Transcription factor plate array assay. The conditions noted are these: 100 nM, 6 hours. As to the method:
The consensus sequences of each of these transcription factors corresponds to the DNA footprinting pattern observed for 16.
The transcription factor plate array assay kit was obtained from Signosis Inc (USA). Briefly, 2×10^6 HeLa cells were treated with 100 nM compound 16 and incubated for 6 hours before extracting the nuclear protein and carrying out the TF plate array assay. The assay was carried out following the manufacturer's protocol. In the case of each transcription factor, the RLU value obtained for the cells treated with 16 was deducted from the respective values obtained for the untreated cells to obtain the differences in TF activation/inhibition.

The test system of the next assay is A431 (Skin). Put plainly: In vitro cytotoxicity, MTT assay, A431. The conditions noted are these: Homo sapiens, A-431, 72 h, read-out: Cytotoxicity. Here is the method:
as §2, §3

The next assay relates to EMRSA 16. As to the kind of experiment: MIC assay, EMRSA 16. Particulars: Staphylococcus aureus. Here is the method:
as §4, §5, §6, §7, §8, §9, §10, §11, §12, §13, §14, §15

Converted amounts (≈) assume the structure as drawn. Bounds are passed on as bounds.

One may read the MIC as the lowest concentration that inhibits growth of the organism. With `COc1cc2c(cc1OCCCC(=O)Nc1cc(C(=O)Nc3ccc(-c4cc(C(=O)Nc5ccc(N)cc5)n(C)c4)cc3)n(C)c1)NC[C@@H]1CCCCN1C2=O` [Compound 16, (S)—N-(4-Aminophenyl)-4-(4-(4-(4-((2-methoxy-12-oxo-5,6,6a,7,8,9,10,12-octahydrobenzo[e]pyrido[1,2-a][1,4]diazepin-3-yl)oxy)butanamido)-1-methyl-1H-pyrrole-2-carboxamido)phenyl)-1-methyl-1H-pyrrole-2-carboxamide], the IC50 turned out to be 79 nM with SW620, 72 nM in the assay with LIM1215, 146 nM in the assay on REH (ALL) and 61.5 nM in the assay on A431 (Skin). Besides, the MIC in assay [1] was > 8 µg/mL; with EMRSA 16, 0.25 to 0.5 µg/mL (≈ 0.329 to 0.659 µM). Further, the “major transcription factors down-regulated” value in assay [2] is “GR/PR, CDP, ATG2 and Oct-4”.
